The text below walks through data of patent US20080119515A1, “Heterocyclic Kinase Inhibitors: Methods of Use and Synthesis” (priority 2003, published 2008).

Structures are written as SMILES. A value given as a limit tells only on which side of the number the result lay.

The target in this experiment is T1, ZAP-70 (Homo sapiens, UniProt P43403).
T1 sequence (P43403 1-619): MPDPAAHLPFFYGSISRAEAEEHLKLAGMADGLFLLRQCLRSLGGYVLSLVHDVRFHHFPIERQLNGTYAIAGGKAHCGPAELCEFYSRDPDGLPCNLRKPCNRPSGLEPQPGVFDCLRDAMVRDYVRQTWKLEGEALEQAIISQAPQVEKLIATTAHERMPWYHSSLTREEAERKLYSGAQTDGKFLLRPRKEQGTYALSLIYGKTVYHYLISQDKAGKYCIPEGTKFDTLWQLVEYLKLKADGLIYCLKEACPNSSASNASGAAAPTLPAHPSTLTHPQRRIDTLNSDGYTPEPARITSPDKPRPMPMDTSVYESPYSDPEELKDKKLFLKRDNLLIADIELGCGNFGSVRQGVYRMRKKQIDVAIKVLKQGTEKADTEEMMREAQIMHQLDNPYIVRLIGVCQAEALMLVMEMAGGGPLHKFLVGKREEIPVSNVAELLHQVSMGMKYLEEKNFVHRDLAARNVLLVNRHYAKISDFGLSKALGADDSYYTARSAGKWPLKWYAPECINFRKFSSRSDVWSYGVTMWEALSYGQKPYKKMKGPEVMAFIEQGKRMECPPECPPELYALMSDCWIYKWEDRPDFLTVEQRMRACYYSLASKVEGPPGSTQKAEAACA
The experiment in a line: DELFIA assay (ZAP-70 kinase, phosphorylation of biotinylated poly(glu,tyr)). It counts as biochemical. Conditions: ZAP-70 DELFIA, class symbols; read-out: Activity (IC50 in vitro). The method in brief: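 3.1 nM ZAP-70 pre-incubated 10 min at room temperature with compound ([…]) and 62.5 nM biotinylated poly(glu,tyr) in 62.5 mM Mops pH 7.0, 12.5 mM MgCl2, 12.5% glycerol, 6.25% DMSO (pre-incubation concentrations); ATP added from 5 mM stock, 30 min reaction, EDTA stop. Phosphorylation read by DELFIA europium anti-phosphotyrosine fluorescence (340/615).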

Regarding `N#Cc1ccc(-c2ccc3nc(CCc4ccc(Cl)cc4)cc(C(=O)N4CCC[C@H]4CN4CCCC4)c3c2)cc1` [Compound 390], the IC50 – broadly, the concentration needed to halve the response being measured – is more than 10000 nM.
With `N#Cc1ccc(-c2ccc3nc(CCc4ccccc4)cc(C(=O)N4CCC[C@H]4CN4CCCC4)c3c2)cc1` [Compound 391] the figure was more than 10000 nM.
For `Cc1ccc(CCc2cc(C(=O)N3CCC[C@H]3CN3CCCC3)c3cc(-c4ccc5c(c4)OCO5)ccc3n2)cc1` [Compound 392], the IC50 was less than 1000 nM.
With `O=C(c1cc(CCc2ccc(-c3ccccc3)cc2)nc2ccc(-c3ccc4c(c3)OCO4)cc12)N1CCC[C@H]1CN1CCCC1` [Compound 393] the figure was less than 1000 nM.
In the case of `Nc1ccc(CCc2cc(C(=O)N3CCC[C@H]3CN3CCCC3)c3cc(-c4ccc5c(c4)OCO5)ccc3n2)cc1` [Compound 394] it was more than 10000 nM; in that of `O=C(c1cc(CCc2ccccc2F)nc2ccc(-c3ccc4c(c3)OCO4)cc12)N1CCC[C@H]1CN1CCCC1` [Compound 395], less than 1000 nM.
In the case of `O=C(c1cc(CCc2cccc(F)c2)nc2ccc(-c3ccc4c(c3)OCO4)cc12)N1CCC[C@H]1CN1CCCC1` [Compound 396] it was less than 1000 nM; in that of `O=C(c1cc(CCc2ccc(F)cc2F)nc2ccc(-c3ccc4c(c3)OCO4)cc12)N1CCC[C@H]1CN1CCCC1` [Compound 397], less than 1000 nM; in that of `CCCCCc1ccc(CCc2cc(C(=O)N3CCC[C@H]3CN3CCCC3)c3cc(-c4ccc5c(c4)OCO5)ccc3n2)cc1` [Compound 398], less than 1000 nM.
Regarding `O=C(c1ccnc2ccc(-c3ccc4c(c3)OCO4)cc12)N1CCC[C@H]1CN1CCCC1` [Compound 399], the IC50 was more than 10000 nM.
With `O=C(c1cc(Cc2ccc(Cl)cc2)nc2ccc(-c3ccc4c(c3)OCO4)cc12)N1CCC[C@H]1CN1CCCC1` [Compound 400] the figure was less than 1000 nM.
With `O=C(c1cc(Cc2ccc(Cl)cc2Cl)nc2ccc(-c3ccc4c(c3)OCO4)cc12)N1CCC[C@H]1CN1CCCC1` [Compound 401] the figure was less than 1000 nM.
With `C[Si](C)(C)C#Cc1cc(C(=O)N2CCC[C@H]2CN2CCCC2)c2cc(-c3ccc4c(c3)OCO4)ccc2n1` [Compound 402] the figure was less than 1000 nM.
In the case of `COc1ccc(C#Cc2cc(C(=O)N3CCC[C@H]3CN3CCCC3)c3cc(-c4ccc5c(c4)OCO5)ccc3n2)cc1` [Compound 403], the IC50 is less than 1000 nM.
In the case of `O=C(c1cc(C#Cc2cccc(C(F)(F)F)c2)nc2ccc(-c3ccc4c(c3)OCO4)cc12)N1CCC[C@H]1CN1CCCC1` [Compound 404], the IC50 is less than 1000 nM.
In the case of `CCN(Cc1ccc(C)cc1)c1cc(C(=O)N2CCC[C@H]2CN2CCCC2)c2cc(-c3ccc4c(c3)OCO4)ccc2n1` [Compound 405] it was less than 1000 nM.
In the case of `O=C(c1cc(CCCc2ccc(Cl)cc2)nc2ccc(-c3ccc4c(c3)OCO4)cc12)N1CCC[C@H]1CN1CCCC1` [Compound 406] it was less than 1000 nM; in that of `O=C(c1cc(CCCCc2ccc(Cl)cc2)nc2ccc(-c3ccc4c(c3)OCO4)cc12)N1CCC[C@H]1CN1CCCC1` [Compound 407], less than 1000 nM.
In the case of `C[Si](C)(C)CCc1cc(C(=O)N2CCC[C@H]2CN2CCCC2)c2cc(-c3ccc4c(c3)OCO4)ccc2n1` [Compound 408] it was more than 10000 nM.
`COc1ccc(CCc2cc(C(=O)N3CCC[C@H]3CN3CCCC3)c3cc(-c4ccc5c(c4)OCO5)ccc3n2)cc1` [Compound 409]: the IC50 is more than 10000 nM.
For `O=C(c1cc(CCc2cccc(C(F)(F)F)c2)nc2ccc(-c3ccc4c(c3)OCO4)cc12)N1CCC[C@H]1CN1CCCC1` [Compound 410], the IC50 is less than 1000 nM.
In the case of `O=C(c1cc(NCc2ccc(C(F)(F)F)cc2)nc2ccc(-c3ccc4c(c3)OCO4)cc12)N1CC=C[C@H]1CN1CCCC1` [Compound 411] it was less than 1000 nM; in that of `CN(C)c1ccc(Nc2cc(/C=C/c3ccc(F)cc3)nc3ccc(-c4ccc5c(c4)OCO5)cc23)cc1` [Compound 412], more than 10000 nM; in that of `Fc1ccc(/C=C/c2cc(Nc3ccc(N4CCNCC4)cc3)c3cc(-c4ccc5c(c4)OCO5)ccc3n2)cc1` [Compound 413], 1000 to 10000 nM.
As to `Fc1ccc(CCc2cc(Nc3ccc(N4CCNCC4)cc3)c3cc(-c4ccc5c(c4)OCO5)ccc3n2)cc1` [Compound 414], the IC50 was more than 10000 nM.
In the case of `CN(C)c1ccc(Nc2cc(CCc3ccc(F)cc3)nc3ccc(-c4ccc5c(c4)OCO5)cc23)cc1` [Compound 415], the IC50 was more than 10000 nM.
In the case of `O=C(c1cc(NCc2ccc(C(F)(F)F)cc2)nc2ccc(-c3cccc(CO)c3)cc12)N1CCC[C@H]1CN1CCCC1` [Compound 416] it was more than 10000 nM.
With `O=C(c1cc(NCc2ccc(C(F)(F)F)cc2)nc2ccc(-c3ccc(CO)cc3)cc12)N1CCC[C@H]1CN1CCCC1` [Compound 417] the figure was more than 10000 nM.
In the case of `COc1cc(-c2ccc3nc(NCc4ccc(C(F)(F)F)cc4)cc(C(=O)N4CCC[C@H]4CN4CCCC4)c3c2)ccc1O` [Compound 418] it was more than 10000 nM; in that of `O=C(c1cc(NCc2ccc(C(F)(F)F)cc2)nc2ccc(-c3ccc(O)cc3)cc12)N1CCC[C@H]1CN1CCCC1` [Compound 419], more than 10000 nM; in that of `CN(C)C(=O)c1ccc(-c2ccc3nc(NCc4ccc(C(F)(F)F)cc4)cc(C(=O)N4CCC[C@H]4CN4CCCC4)c3c2)cc1` [Compound 420], more than 10000 nM.
Turning to `Cn1ccc2cc(-c3ccc4nc(NCc5ccc(C(F)(F)F)cc5)cc(C(=O)N5CCC[C@H]5CN5CCCC5)c4c3)ccc21` [Compound 421], the IC50 was more than 10000 nM.
With `CC(C)(C)/C=C/c1ccc2nc(NCc3ccc(C(F)(F)F)cc3)cc(C(=O)N3CCC[C@H]3CN3CCCC3)c2c1` [Compound 422] the figure was more than 10000 nM; with `Nc1ccc(-c2ccc3nc(NCc4ccc(C(F)(F)F)cc4)cc(C(=O)N4CCC[C@H]4CN4CCCC4)c3c2)cc1` [Compound 424], more than 10000 nM; with `O=C(c1cc(NCc2ccc(C(F)(F)F)cc2)nc2ccc(-c3cccc([C@H]4CCNC[C@@H]4O)c3)cc12)N1CCC[C@H]1CN1CCCC1` [Compound 425], more than 10000 nM.
With `O=C(c1cc(NCc2ccc(C(F)(F)F)cc2)nc2ccc(-c3ccc(C4CCNC[C@H]4O)cc3)cc12)N1CCC[C@H]1CN1CCCC1` (stereo partly shown) [Compound 426] the figure was more than 10000 nM; with `O=C(c1cc(NCc2ccc(C(F)(F)F)cc2)nc2ccc(-c3cccc([C@H]4CNCC[C@@H]4O)c3)cc12)N1CCC[C@H]1CN1CCCC1` [Compound 427], more than 10000 nM.
For the compound `O=C(c1cc(Nc2ccc(N3CCNCC3)cc2)nc2ccc(-c3ccc4c(c3)OCO4)cc12)N1CCCC1CN1CCCC1` (stereo not shown) [Compound 428], the IC50 was less than 1000 nM.
Consider `CN1CCN(c2ccc(Nc3cc(C(=O)N4CCCC4CN4CCCC4)c4cc(-c5ccc6c(c5)OCO6)ccc4n3)cc2)CC1` (stereo not shown) [Compound 429], for which the IC50 is less than 1000 nM.
With `O=C(c1cc(Nc2cccc(C3CCNC[C@@H]3O)c2)nc2ccc(-c3ccc4c(c3)OCO4)cc12)N1CCCC1CN1CCCC1` (stereo partly shown) [Compound 430] the figure was less than 1000 nM.
As for `O=C(Cc1cc(C(=O)N2CCC[C@H]2CN2CCCC2)c2cc(-c3ccc4c(c3)OCO4)ccc2n1)c1ccc(C(F)(F)F)cc1` [Compound 431], the IC50 fell in the range of 1000 to 10000 nM.
In the case of `Nc1cc(-c2ccc3c(c2)OCO3)cc2c(C(=O)N3CCC[C@H]3CN3CCCC3)cc(CCc3ccc(C(F)(F)F)cc3)nc12` [Compound 432] it was less than 1000 nM; in that of `Nc1cc(CCc2ccc(C(F)(F)F)cc2)cc2c(C(=O)N3CCC[C@H]3CN3CCCC3)cc(CCc3ccc(C(F)(F)F)cc3)nc12` [Compound 433], less than 1000 nM; in that of `O=C(c1cc(CCCc2ccccc2)nc2ccc(-c3ccc4c(c3)OCO4)cc12)N1CCC[C@H]1CN1CCCC1` [Compound 434], less than 1000 nM.
In the case of `O=C(c1cc(CCCCc2ccccc2)nc2ccc(-c3ccc4c(c3)OCO4)cc12)N1CCC[C@H]1CN1CCCC1` [Compound 435] it was less than 1000 nM.
On to `O=C(c1cc(CC(O)c2ccc(C(F)(F)F)cc2)nc2ccc(-c3ccc4c(c3)OCO4)cc12)N1CCC[C@H]1CN1CCCC1` (stereo partly shown) [Compound 436], for which the IC50 was less than 1000 nM.
With `NCc1ccc(CNc2cc(C(=O)N3CCC[C@H]3CN3CCCC3)c3cc(-c4ccc5c(c4)OCO5)ccc3n2)cc1` [Compound 437] the figure was less than 1000 nM; with `CC1CN(c2ccc(Cc3cc(C(=O)N4CCCC4CN4CCCC4)c4cc(-c5ccc6c(c5)OCO6)ccc4n3)cc2)CCN1` (stereo not shown) [Compound 438], less than 1000 nM; with `O=C(c1cc(Cc2ccc(N3CCNCC3)cc2)nc2ccc(-c3ccc4c(c3)OCO4)cc12)N1CCCC1CN1CCCC1` (stereo not shown) [Compound 439], less than 1000 nM.
In the case of `O=C(c1cc(Cc2ccc(N3CCN(c4ccncc4)CC3)cc2)nc2ccc(-c3ccc4c(c3)OCO4)cc12)N1CCCC1CN1CCCC1` (stereo not shown) [Compound 440] it was less than 1000 nM; in that of `CN(C)CCCN1CCN(c2ccc(Cc3cc(C(=O)N4CCCC4CN4CCCC4)c4cc(-c5ccc6c(c5)OCO6)ccc4n3)cc2)CC1` (stereo not shown) [Compound 441], less than 1000 nM.
With `CN(C)CCN1CCN(c2ccc(Cc3cc(C(=O)N4CCCC4CN4CCCC4)c4cc(-c5ccc6c(c5)OCO6)ccc4n3)cc2)CC1` (stereo not shown) [Compound 442] the figure was less than 1000 nM.
